Reference: patent US20220016115A1, “USP19 INHIBITORS FOR USE IN THERAPY” (ALMAC DISCOVERY LIMITED, priority 2018, published 2022)

Assays:
[1] = tested on: diet-induced obese (DIO) mouse; experiment: Diet-induced obesity mouse model: body weight, DEXA and carcass composition; format: in vivo
Method: (§1) To assess obesity and insulin resistance, a diet-induced obesity mouse model was used.
(§2) Male C57BL6/J mice were continuously provided with high-fat diet (D12451, 45% kcal as fat; Research Diets, New Jersey, USA) and filtered tap water ad libitum for the duration of the study. From day 0, mice were administered vehicle i.p. BID, USP19 inhibitor (ADC-141) i.p. BID at 5 mg/kg or 25 mg/kg, or positive control liraglutide 0.1 mg/kg s.c. BID. Mice were allocated to treatment groups to balance the groups on the basis of body weight, food and water intake prior to the start of treatment.
(§3) Body weight was measured daily. On Day 13, body composition was assessed by DEXA. On Day 15, fasting glucose and insulin levels were measured before and during an oral glucose tolerance test (OGTT) to assess improvements in glucose control. The OGTT was performed following an overnight fast. […] An OGTT was performed the following morning (approx. 16h post fast). Mice were dosed with vehicle or test compound (starting at 08.45) to a timed schedule 30 minutes prior to the administration of the glucose challenge (2.0 g/kg po). Blood samples were taken immediately prior to dosing (B1), immediately prior to glucose administration (B2) and 15, 30, 60 and 120 minutes after glucose administration.
After OGTT, mice were humanely killed and carcass composition was assessed. The carcass was weighed and stored frozen and the chemical composition of each carcass (fat, protein, water and ash) was determined using classical techniques. Carcass water was determined by freeze-drying the carcasses to constant weight for 2 weeks. Carcass fat was determined on samples of the dry powdered carcasses using a modified Soxhlet extraction protocol (petroleum ether at 40-60° C.) with a Tecator Soxtec 2050 system (Foss UK Ltd, Wheldrake, UK) according to the manufacturer's recommended protocol. Carcass protein was determined using a micro-Kjeldahl procedure on samples of the dry powdered carcasses using a Tecator 2012 digestion block and 2200 distilling unit (Foss UK Ltd). Residual carcass ash was determined by firing samples of the dry powdered carcasses at high temperatures using a muffle ashing furnace (Carbolite OAF 11/1). Repeat determinations of the chemical analysis parameters were performed if necessary (e.g. if the duplicate samples differed by more than 1%). Data for each body composition parameter (fat, protein, water and ash) was determined as g/carcass and % total. Final carcass weights were also analysed as a direct comparison.

USP19 = biological target: T1, USP19 (Homo sapiens, UniProt O94966); experiment: Cell target engagement, breast cancer cell line; format: cell-based
T1 sequence (O94966 1-1318): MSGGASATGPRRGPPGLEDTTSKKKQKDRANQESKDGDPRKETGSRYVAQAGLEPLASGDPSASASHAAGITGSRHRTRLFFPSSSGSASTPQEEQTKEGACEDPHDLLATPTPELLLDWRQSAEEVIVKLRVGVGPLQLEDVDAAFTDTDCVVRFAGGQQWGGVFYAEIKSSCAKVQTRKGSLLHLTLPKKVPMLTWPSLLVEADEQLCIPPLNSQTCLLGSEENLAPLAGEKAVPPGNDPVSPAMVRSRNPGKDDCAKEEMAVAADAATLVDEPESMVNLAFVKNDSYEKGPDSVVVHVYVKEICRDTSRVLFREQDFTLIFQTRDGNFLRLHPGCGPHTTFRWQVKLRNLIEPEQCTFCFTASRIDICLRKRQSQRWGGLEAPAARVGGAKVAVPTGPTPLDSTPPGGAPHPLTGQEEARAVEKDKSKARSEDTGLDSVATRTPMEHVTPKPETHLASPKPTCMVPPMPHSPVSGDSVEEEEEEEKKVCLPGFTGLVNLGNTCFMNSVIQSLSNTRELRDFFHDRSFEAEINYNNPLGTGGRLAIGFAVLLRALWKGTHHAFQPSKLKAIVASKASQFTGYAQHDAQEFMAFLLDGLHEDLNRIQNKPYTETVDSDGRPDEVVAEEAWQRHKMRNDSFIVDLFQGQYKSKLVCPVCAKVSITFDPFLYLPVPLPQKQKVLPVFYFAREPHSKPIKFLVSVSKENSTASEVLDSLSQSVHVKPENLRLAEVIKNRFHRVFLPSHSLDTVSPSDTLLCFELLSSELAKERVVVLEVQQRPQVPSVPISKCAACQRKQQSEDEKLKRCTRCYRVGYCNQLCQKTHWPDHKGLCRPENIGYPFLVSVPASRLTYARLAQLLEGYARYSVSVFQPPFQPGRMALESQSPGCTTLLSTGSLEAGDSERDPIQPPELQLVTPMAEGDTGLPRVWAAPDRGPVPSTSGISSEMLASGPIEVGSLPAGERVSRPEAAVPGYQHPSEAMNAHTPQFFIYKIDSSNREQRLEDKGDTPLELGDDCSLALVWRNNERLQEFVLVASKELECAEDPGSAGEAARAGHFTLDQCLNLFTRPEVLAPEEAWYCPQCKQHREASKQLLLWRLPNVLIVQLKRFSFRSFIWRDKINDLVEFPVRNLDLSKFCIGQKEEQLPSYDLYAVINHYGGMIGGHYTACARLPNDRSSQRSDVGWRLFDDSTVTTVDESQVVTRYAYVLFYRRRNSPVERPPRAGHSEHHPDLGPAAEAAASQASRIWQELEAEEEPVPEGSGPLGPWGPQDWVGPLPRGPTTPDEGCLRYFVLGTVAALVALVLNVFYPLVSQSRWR
Method: Cells from a breast cancer cell line, a neuroblastoma cell line and a mouse skeletal muscle cell line were treated with a USP19 inhibitor compound (ADC-141, corresponding to Example 212 provided herein) for 2 hrs, lysed (lysis buffer: 50 mM Tris pH 7.4; 150 mM NaCl; 5 mM MgCl2; 0.5 mM EDTA; 0.5% NP40; 10% Glycerol; 2 mM DTT) and Ubiquitin-propargylamine (Ub-PA; UbiQ) or Ubiquitin-vinyl methyl ester (Ub-VME; Almac Sciences Scotland Limited) was then added. Samples were analysed by western blotting probing for USP19 (EC50 determined by densitometry).

[2] = tested on: diet-induced obese (DIO) mouse; experiment: Oral glucose tolerance test (OGTT) in diet-induced obese mice; format: in vivo
Method: as §1, §2, §3

[3] = ADC-141 25 mg/kg ip bid, liraglutide 0.1 mg/kg sc bid
[4] = ADC-141 25 mg/kg ip bid, liraglutide 0.1 mg/kg sc bid, vs vehicle
[5] = DEXA, ADC-141 25 mg/kg ip bid, liraglutide 0.1 mg/kg sc bid

For C[C@H](CC1CCCCC1)C(=O)N1CC[C@@](O)(Cn2cc(C(=O)N3CCNCC3)c(-c3ccccc3)cc2=O)C2(CCCC2)C1 [ADC-141, 1-(((S)-7-((R)-3-Cyclohexyl-2-methylpropanoyl)-10-hydroxy-7-azaspiro[4.5]decan-10-yl)methyl)-4-phenyl-5-(piperazine-1-carbonyl)pyridin-2(1H)-one], the “relative water content of the carcass (percentage of total carcass mass)” value ([1]; ADC-141 5 mg/kg ip bid) was “no effect”, the “carcass water content (g)” value ([1]; ADC-141 5 mg/kg ip bid, vs vehicle) was “no significant effect” and the carcass protein ([1]; ADC-141 5 mg/kg ip bid, vs vehicle-treated animals) was “no significant changes”. For the same compound, the carcass percentage fat ([1]; ADC-141 25 mg/kg ip bid) was −14.6%, the “differences in body weights on the final day of the study” value [1, 3] was roughly 13% and the “loss of fat as share of the total weight lost” value [1, 3] was 79%. The “percent protein (percentage of total carcass mass), increase” value [1, 3] was 6.0%, the “reduction in carcass fat (g) from controls” value [1, 3] was 24.9% and the “relative water content of the carcass (percentage of total carcass mass)” value [1, 3] was “+11.4%”. The “carcass ash content (g)” value [1, 4] was −9.6%, the “carcass protein content (g)” value [1, 4] was −7.2% and the “carcass water content (g)” value [1, 4] was “no significant effect”. The “reduction in fat mass compared to vehicle treated controls” value ([1]; DEXA Day 13, liraglutide 0.1 mg/kg sc bid, dose of USP19 inhibitor not printed at place) was 24%, the “lean body mass change” value ([1]; DEXA Day 13, vs vehicle, not significant (p>0.05)) was −3% and the total tissue mass ([1]; DEXA analysis) was “significant reduction”. The “fat mass % (percentage of total tissue mass)” value [1, 5] was “significantly decreased”, the “lean mass % (percentage of total tissue mass)” value [1, 5] was “increased” and the “cumulative and average food intake” value ([1]; compared to vehicle control mice (p<0.001)) was “reduction”. The “carcass weight compared to vehicle-treated controls” value ([1]; two weeks, ADC-141 25 mg/kg ip bid, liraglutide 0.1 mg/kg sc bid) was roughly −12%, the “average weekly body weight gain” value ([1]; week 1, ADC-141 25 mg/kg ip bid, liraglutide 0.1 mg/kg sc bid, vs vehicle) was “significantly decreased” and the “average weekly body weight gain” value ([1]; week 2, ADC-141 25 mg/kg ip bid, liraglutide 0.1 mg/kg sc bid, vs vehicle) was “significantly decreased”. The cell permeability (USP19) was “good cell permeability”, the “EC50 (USP19 target engagement, densitometry)” value (USP19; 2 hrs treatment, Ub-PA or Ub-VME probe, western blot) was “low nanomolar” and the “insulin AUC” value ([2]; 0-60 and 0-120 minutes, 25 mg/kg ip bid) was “reduced”. The “glucose AUCB2” value ([2]; 0-120 minutes only, 25 mg/kg ip bid, vs vehicle) was “significantly reduced”, the “glucose AUC” value ([2]; 25 mg/kg ip bid, vs vehicle) was “significantly reduced” and the plasma insulin ([2]; 30, 60 and 120 minutes post-glucose, 25 mg/kg ip bid) was “reduced”. For the same compound, the plasma glucose ([2]; all time points pre- and post-glucose, 25 mg/kg ip bid, vs vehicle) was “significantly reduced” and the fasting plasma glucose ([2]; following 2 weeks of treatment) was “effective at decreasing”.
